Values of other authors in patent US20120010144A1, “Peg-albumin composition having at least one protected thiol region as a platform for medications” (priority 2009, published 2012).

Conditions: soluble in water (hydrophilic) or in lipid (hydrophobic)

| Molecule | Solubility |
| --- | --- |
| Cc1c(C)c2c(c(C)c1O)CC[C@@](C)(CCC[C@H](C)CCC[C@H](C)CCCC(C)C)O2 [A-Tocopherol] | Lipid |
| N[C@@H](CCC(=O)N[C@@H](CS)C(=O)NCC(=O)O)C(=O)O [Glutathione] | Water |
| COc1c(O)c(C)c(C/C=C(\C)CC/C=C(\C)CC/C=C(\C)CC/C=C(\C)CC/C=C(\C)CC/C=C(\C)CC/C=C(\C)CC/C=C(\C)CC/C=C(\C)CCC=C(C)C)c(O)c1OC [Ubiquinol] | Lipid |
| O=c1[nH]c(=O)c2[nH]c(=O)[nH]c2[nH]1 [Uric Acid] | Water |
| Carotenes | Lipid |
